The target in experiment [1] is T1, Human-SGLT1 (Homo sapiens, UniProt P13866).
T1 sequence (P13866 1-664): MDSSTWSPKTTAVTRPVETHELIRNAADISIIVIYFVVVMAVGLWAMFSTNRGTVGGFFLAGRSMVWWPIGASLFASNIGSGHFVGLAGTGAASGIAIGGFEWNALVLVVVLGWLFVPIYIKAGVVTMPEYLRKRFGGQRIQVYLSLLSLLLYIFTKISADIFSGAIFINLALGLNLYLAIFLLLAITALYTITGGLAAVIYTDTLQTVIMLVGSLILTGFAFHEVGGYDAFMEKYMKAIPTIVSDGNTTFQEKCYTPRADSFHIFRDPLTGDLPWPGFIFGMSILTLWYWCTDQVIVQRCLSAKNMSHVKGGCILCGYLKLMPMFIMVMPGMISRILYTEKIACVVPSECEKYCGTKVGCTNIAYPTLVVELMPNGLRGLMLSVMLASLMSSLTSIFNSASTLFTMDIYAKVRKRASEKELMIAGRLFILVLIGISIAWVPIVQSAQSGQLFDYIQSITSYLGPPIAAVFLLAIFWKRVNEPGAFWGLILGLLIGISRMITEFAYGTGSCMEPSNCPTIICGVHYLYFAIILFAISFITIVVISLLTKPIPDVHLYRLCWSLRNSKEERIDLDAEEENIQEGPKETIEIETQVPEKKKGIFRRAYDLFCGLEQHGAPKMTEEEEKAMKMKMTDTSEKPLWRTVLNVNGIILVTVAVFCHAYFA
Put plainly: SGLT1 glucose transport test ([14C]-labeled methyl a-D-glucopyranoside uptake). Format: cell-based. The conditions noted are these: cells stably expressing Human-SGLT1; 37° C., 2 hours. From the text: Biological Activity Experiment 1: SGLT1 Glucose Transport Test.
(§1) 1. Purpose of the Experiment:
The effect of the compound on the glucose transport activity of SGLT1 transporter was detected by measuring the amount of [′C]-labeled glucose entering cells with high expression of Human-SGLT1.
The cells stably expressing Human-SGLT1 were constructed by Wuxi AppTec(Shanghai) Co., Ltd. SGLT1 cells were laid in Cytostar-T (PerkinElmer) 96-well cell culture plate and cultured overnight in 5% CO2 environment at 37° C.
2.2. SGLT1 Glucose Transport Test.
(§2) 1) Experimental buffer, including: 10 mM 4-hydroxyethylpiperazineethanesulfonic acid (HEPES), 1.2 mM magnesium chloride (MgCl2), 4.7 mM potassium chloride (KCl), 2.2 mM calcium chloride (CaCl2) and 120 mM sodium chloride (NaCl).
2) Compounds were serially diluted in 100% dimethyl sulfoxide (DMSO) starting at 1 mM and make a 5-folds, 8 points serials compound dilutions.
3) 3 μM [′^4C]-labeled methyl a-D-glucopyranoside was prepared with the experimental buffer.
4) The cells were treated with 49 uL of the experimental buffer, 1 μL of the gradient diluted compound and 50 μL of the 3 μM [^14C]-labeled methyl a-D-lucopyranosid solution at 37° C. for 2 hours.
5) The data were read with an isotope detector Micro beta Reader.
6) The IC50 value of the tested compound was obtained by the calculation formula: log(inhibitor) vs. response—Variable slope, using GraphPad Prism 5.0 software.

The target of experiment [2] is T2, Human-SGLT2 (Homo sapiens, UniProt P31639).
T2 sequence (P31639 1-672): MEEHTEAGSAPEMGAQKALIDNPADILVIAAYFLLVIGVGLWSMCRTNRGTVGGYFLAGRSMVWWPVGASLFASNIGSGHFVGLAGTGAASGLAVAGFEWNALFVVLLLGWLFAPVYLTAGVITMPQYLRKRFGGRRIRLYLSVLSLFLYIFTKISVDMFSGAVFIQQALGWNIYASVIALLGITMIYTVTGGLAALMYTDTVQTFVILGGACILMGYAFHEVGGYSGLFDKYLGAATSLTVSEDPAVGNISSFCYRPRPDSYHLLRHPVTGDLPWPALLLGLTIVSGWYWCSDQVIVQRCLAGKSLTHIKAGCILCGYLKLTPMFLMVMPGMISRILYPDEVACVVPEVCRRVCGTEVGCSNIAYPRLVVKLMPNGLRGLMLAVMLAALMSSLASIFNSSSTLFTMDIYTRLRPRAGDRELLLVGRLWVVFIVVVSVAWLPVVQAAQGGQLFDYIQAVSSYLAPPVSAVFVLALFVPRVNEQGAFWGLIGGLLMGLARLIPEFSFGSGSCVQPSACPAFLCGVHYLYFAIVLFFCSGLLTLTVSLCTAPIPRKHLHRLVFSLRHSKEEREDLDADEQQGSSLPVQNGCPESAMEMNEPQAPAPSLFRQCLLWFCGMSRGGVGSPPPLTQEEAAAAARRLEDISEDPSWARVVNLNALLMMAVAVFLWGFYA
The experiment is described as follows: SGLT2 glucose transport test ([14C]-labeled methyl a-D-glucopyranoside uptake). Format: cell-based. The following applies: cells stably expressing Human-SGLT2; 37° C., 2 hours. As to the method:
Biological Activity Experiment 2: SGLT2 Glucose Transport Test.
as §1
The effect of the compound on the glucose transport activity of SGLT2 transporter was detected by measuring the amount of [^14C]-labeled glucose entering cells with high expression of Human-SGLT2.
The cells stably expressing Human-SGLT2 were constructed by Wuxi AppTec(Shanghai) Co., Ltd. SGLT2 cells were laid in 96-well cell culture plate (Greiner) and cultured overnight in 5% CO2 environment at 37° C.
2.2. SGLT2 Glucose Transport Test.
as §2
2) Stop buffer, including: 10 mM 4-hydroxyethylpiperazineethanesulfonic acid (HEPES), 1.2 mM magnesium chloride (MgCl2), 4.7 mM potassium chloride (KCl), 2.2 mM calcium chloride (CaCl2), 120 mM sodium chloride (NaCl) and 1 μM LX4211.
3) Compounds were serially diluted in 100% dimethyl sulfoxide (DMSO) starting at 10 uM and make a 5-folds, 8 points serials compound dilutions.
4) 6 μM [^14C]-labeled methyl a-D-lucopyranosid was prepared with the experimental buffer.
5) The cells were treated with 49 uL of the experimental buffer, 1 μL of the gradient diluted compound and 50 μL of the 6 μM [^14C]-labeled methyl a-D-lucopyranosid solution at 37° C. for 2 hours.
6) The solution was sucked out from holes, and the cells were rinsed with the stop buffer for 3 times.
7) The cells were lysed with 50 ul of 10% sodium hydroxide solution, the cell lysate was sucked into a scintillation tube, into which 2 mL scintillation solution was then added.
8) The data were read with an isotope detector Tricarb.
9) The IC50 value of the tested compound was obtained by the calculation formula: log(inhibitor) vs. response—Variable slope, using GraphPad Prism 5.0 software.

For the molecule `CS[C@H]1OC(c2ccc(Cl)c(Cc3ccc(C4=CCC(F)(F)CC4)cc3)c2)[C@H](O)[C@@H](O)[C@@H]1O` (stereo partly drawn) [WXD001], the IC50 in experiment [1] amounted to 210 nM; in experiment [2], 3.98 nM.

Consider `CS[C@H]1O[C@@H](c2ccc(C)c(Cc3ccc(C4=CCC(F)(F)CC4)cc3)c2)[C@H](O)[C@@H](O)[C@@H]1O` [WXD003], for which the IC50 in experiment [1] was found to be 49.5 nM; in experiment [2], 2.04 nM.

As to `CCc1ccc([C@@H]2O[C@H](SC)[C@@H](O)[C@H](O)[C@H]2O)cc1Cc1ccc(C2=CCC(F)(F)CC2)cc1` [WXD010], the IC50 in experiment [1] amounted to 14.8 nM; in experiment [2], 2.49 nM.

By IC50 is commonly meant the concentration at which inhibition is half-maximal. Low readings indicate greater potency in that assay, high ones weaker potency in that assay.

Values taken from US20200331950A1, “SGLTS INHIBITOR AND APPLICATION THEREOF” (SHANDONG DANHONG PHARMACEUTICAL CO., LTD., priority 2018, published 2020).
